Reference: patent US7709636B2, “Pyrazole sulfonylurea compound and herbicide” (Nissan Chemical Industries, Ltd., priority 2004, dated 2010)

Legend:
[1] = tested on: rice transplanted at a depth of 0 cm; experiment: Herbicidal effect test in submerged condition by treatment before weed-generation (2); type: in vivo, Oryza sativa; conditions: 0.3 g/a; submerged paddy soil pot, seedlings fixed to paddy surface with roots exposed; 3 weeks after treatment
Description: Herbicidal Effect Test in Submerged Condition by Treatment Before Weed-Generation (2)
Paddy surface soil was placed in a plastic pot of 1/10000 are, water was poured therein and mixed. After seeds of Scirpus juncoides were sown, paddy surface soil was added by 2 cm, and submerged with water, and then seeds of Echinochloa crus-galli, Scirpus juncoides, Monochoria vaginalis, Rotala indica and Lindernia pyxidaria were sown together. In addition, rice seedlings at 2.5th leaf stage were transplanted, and fixed to the paddy surface in a state where the roots were exposed on the other side. On the day when the seeds were sown, the wettable powder of the present invention prepared according to Formulation Example 1 was diluted with water so as to give a predetermined formulation amount, and the surface of the water was treated with the diluted wettable powder. The plants were grown by putting the pot in a green house at 25 to 30° C. The herbicidal effect for each plant was investigated 3 weeks after treatment with the herbicide according to the criteria indicated in Test Example 1.

[2] = tested on: transplanted rice (Oryza sativa); experiment: Crop injury test on rice in water leakage condition; type: in vivo; conditions: 0.15 g/a; water leakage 2 cm/day x 3 days; treated on third day after transplantation; 3 weeks after treatment
Description: Crop Injury Test on Rice in Water Leakage Condition A mixed soil of alluvial soil and diluvial soil was placed in a plastic pot perforated at the bottom of 1/10000 are, water was poured therein and mixed, and then rice seedlings at 2.5th leaf stage were transplanted. Water leakage treatment was carried out by placing the pot in a plastic vat, and controlling the amount of water in the vat kept at a condition of 2 cm/day×3 days. The pot was put in a green house at 25 to 30° C., on third day after transplantation, the wettable powder of the present invention prepared according to Formulation Example 1 was diluted with water so as to give a predetermined formulation amount, and the surface of the water was treated with the diluted wettable powder. The crop injury on rice was investigated 3 weeks after treatment with the herbicide according to the criteria indicated in Test Example 1.

Monochoria vaginalis = experiment: Herbicidal effect test in submerged condition by treatment before weed-generation (1); type: in vivo; conditions: 0.64 g/a, water surface treated on day of sowing, 3 weeks after treatment
Outline: (§1)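 Pre-emergence water-surface application of diluted wettable-powder formulation at a predetermined rate, same day as sowing, in flooded alluvial soil (4 cm water) with transplanted 2.5-leaf rice. Grown 3 weeks at 25 to 30° C in greenhouse; rated 0–5 by herbicidal rate.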

Echinochloa crus-galli [3] = experiment: as above; type: in vivo; conditions: 0.64 g/a, water surface treated on day of sowing, 3 weeks after treatment
Outline: as §1

Scirpus juncoides = experiment: as above; type: in vivo; conditions: 0.64 g/a, water surface treated on day of sowing, 3 weeks after treatment
Outline: as §1

[4] = tested on: Triticum aestivum (wheat); experiment: Herbicidal effect test by soil treatment; type: in vivo; conditions: 1.6 g/a, 3 weeks after treatment
Outline: (§2)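 Pre-emergence soil application: wettable powder formulation, water-diluted to set dose, sprayed evenly over soil surface after sowing; seeds under ~1.5 cm sterilized diluvial soil. Effect rated at 3 wk by criteria scale.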

soybean (Glycine max) = experiment: Herbicidal effect test by soil treatment; type: in vivo; conditions: 1.6 g/a, 3 weeks after treatment
Outline: as §2

Digitaria adscendes = experiment: Herbicidal effect test by soil treatment; type: in vivo; conditions: 1.6 g/a, 3 weeks after treatment
Outline: as §2

Setaria viridis = experiment: Herbicidal effect test by soil treatment; type: in vivo; conditions: 1.6 g/a, 3 weeks after treatment
Outline: as §2

Ambrosia elatior = experiment: Herbicidal effect test by soil treatment; type: in vivo; conditions: 1.6 g/a, 3 weeks after treatment
Outline: as §2

Stellaria media = experiment: Herbicidal effect test by soil treatment; type: in vivo; conditions: 1.6 g/a, 3 weeks after treatment
Outline: as §2

Abutilon avicennae = experiment: Herbicidal effect test by soil treatment; type: in vivo; conditions: 1.6 g/a, 3 weeks after treatment
Outline: as §2

corn (Zea mays) = experiment: Herbicidal effect test by soil treatment; type: in vivo; conditions: 1.6 g/a, 3 weeks after treatment
Outline: as §2

Echinochloa crus-galli [5] = experiment: Herbicidal effect test by soil treatment; type: in vivo; conditions: 1.6 g/a, 3 weeks after treatment
Outline: as §2

Avena fatua = experiment: Herbicidal effect test by soil treatment; type: in vivo; conditions: 1.6 g/a, 3 weeks after treatment
Outline: as §2

Black-grass = experiment: Herbicidal effect test by soil treatment; type: in vivo; conditions: 1.6 g/a, 3 weeks after treatment
Outline: as §2

Polygonum blumei = experiment: Herbicidal effect test by soil treatment; type: in vivo; conditions: 1.6 g/a, 3 weeks after treatment
Outline: as §2

Amaranthus retroflexus = experiment: Herbicidal effect test by soil treatment; type: in vivo; conditions: 1.6 g/a, 3 weeks after treatment
Outline: as §2

Chenopodium album = experiment: Herbicidal effect test by soil treatment; type: in vivo; conditions: 1.6 g/a, 3 weeks after treatment
Outline: as §2

Beta vulgaris (beet) = experiment: Herbicidal effect test by soil treatment; type: in vivo; conditions: 1.6 g/a, 3 weeks after treatment
Outline: as §2

For `COc1cc(OC)nc(NC(=O)NS(=O)(=O)c2c(C3=NOCC(C)O3)c(Cl)nn2C)n1` (centres unmarked) [Compound 1, N-((4,6-dimethoxypyrimidin-2-yl)aminocarbonyl)-3-chloro-1-methyl-4-(5-methyl-5H,6H-1,4,2-dioxadin-3-yl)pyrazole-5-sulfonamide], the “herbicidal effect, g: rice transplanted at a depth of 0 cm” value [1] was 0 (Herbicidal rate 5% or less (little effect)), the “crop injury on rice, a: transplanted rice (Oryza sativa)” value [2] was 0 (Herbicidal rate 5% or less (little effect)) and the “herbicidal effect, C: Monochoria vaginalis” value (Monochoria vaginalis) was 5 (Herbicidal rate 90% or more (almost complete death)). For the same compound, the “herbicidal effect, A: Echinochloa crus-galli” value (Echinochloa crus-galli [3]) was 5 (Herbicidal rate 90% or more (almost complete death)), the “herbicidal effect, B: Scirpus juncoides” value (Scirpus juncoides) was 5 (Herbicidal rate 90% or more (almost complete death)) and the “herbicidal effect, e: Triticum aestivum (wheat)” value [4] was 5 (Herbicidal rate 90% or more (almost complete death)). For the same compound, the “herbicidal effect, c: soybean (Glycine max)” value (soybean (Glycine max)) was 5 (Herbicidal rate 90% or more (almost complete death)), the “herbicidal effect, D: Digitaria adscendes” value (Digitaria adscendes) was 4 (Herbicidal rate 70% or more and less than 90%) and the “herbicidal effect, E: Setaria viridis” value (Setaria viridis) was 1 (Herbicidal rate 5% or more and less than 20%). The “herbicidal effect, I: Ambrosia elatior” value (Ambrosia elatior) was 5 (Herbicidal rate 90% or more (almost complete death)), the “herbicidal effect, M: Stellaria media” value (Stellaria media) was 5 (Herbicidal rate 90% or more (almost complete death)) and the “herbicidal effect, H: Abutilon avicennae” value (Abutilon avicennae) was 4 (Herbicidal rate 70% or more and less than 90%). The “herbicidal effect, b: corn (Zea mays)” value (corn (Zea mays)) was 5 (Herbicidal rate 90% or more (almost complete death)), the “herbicidal effect, A: Echinochloa crus-galli” value (Echinochloa crus-galli [5]) was 2 (Herbicidal rate 20% or more and less than 40%) and the “herbicidal effect, F: Avena fatua” value (Avena fatua) was 0 (Herbicidal rate 5% or less (little effect)). For the same compound, the “herbicidal effect, G: Black-grass” value (Black-grass) was 4 (Herbicidal rate 70% or more and less than 90%), the “herbicidal effect, L: Polygonum blumei” value (Polygonum blumei) was 5 (Herbicidal rate 90% or more (almost complete death)) and the “herbicidal effect, J: Amaranthus retroflexus” value (Amaranthus retroflexus) was 5 (Herbicidal rate 90% or more (almost complete death)). For the same compound, the “herbicidal effect, K: Chenopodium album” value (Chenopodium album) was 5 (Herbicidal rate 90% or more (almost complete death)) and the “herbicidal effect, f: Beta vulgaris (beet)” value (Beta vulgaris (beet)) was 5 (Herbicidal rate 90% or more (almost complete death)).
